Where “and” joins values, the source holds several entries; their conditions need not be identical. Equal entries are not always repeated. Entries after “also recorded” stand apart in the source; their conditions may differ. Where two headings read alike, the source gives them in different places.
Assay: Phase 1b MAD plasma pharmacokinetics, non-compartmental analysis
Type: in vivo, human
Source text: Methods: All study procedures were approved by the IRB, and informed consent was obtained. Three cohorts of volunteers 45-80 years of age with well-controlled comorbidities (NOAD) and one cohort of AD patients diagnosed with cognitive impairment consistent with prodromal AD per International Working Group criteria or mild AD per National Institute on Aging—Alzheimer's Association criteria (n=6 active, 2 placebo per cohort) were enrolled. Participants were admitted to the study site for the duration of the dosing and returned 7-12 days after the last dose for a safety visit. Participants received NTRX-07 (10, 30, or 90 mg) or a placebo in a double-blinded randomization orally once daily for seven days. Subjects were assessed for changes in vital signs, including maneuvers to induce lightheadedness, electrocardiograms, 24-hour electroencephalograms (EEG), and safety laboratory studies. The second cohort returned and received a single repeat dose after a standard high-fat meal. The AD cohort also underwent cognitive testing and had blood samples for biomarkers drawn. Subjects had PK sampling done after the first and final dose of the study drug. An independent safety review committee conducted a blinded safety review of adverse events and plasma levels between each cohort.
All subjects had PK sampling done after the first and final dose of the study drug.
(§1) Raw bioanalytical data were received from Nuvisan following analysis of plasma samples from each of four cohorts. PK parameters were calculated by noncompartmental analysis using standard equations. Specifically, area under the plasma concentration versus time curve (AUC) was calculated using the trapezoid rule. Maximal plasma concentration (Cmax) and time of maximal plasma concentration (Tmax) were taken directly from the data. Clearance divided by bioavailability (Cl/F) was calculated as the dose divided by the AUC. Apparent volume of distribution over bioavailability (Vd/F) was calculated as dose divided by Cmax.
With oral administration of the dose every 24 hours for 7 days, blood samples were taken over a 24-hour interval on Days 1 and 7 and before and after dosing on Day 3.
as §1, with “on Oct. 27, 2022. […]” for “following analysis of plasma samples from each of four cohorts. PK parameters were calculated by noncompartmental analysis using standard equations.”
as §1, with “on Nov. 24, 2022. […]” for “following analysis of plasma samples from each of four cohorts. PK parameters were calculated by noncompartmental analysis using standard equations.”
as §1, with “on Dec. 19, 2022. […]” for “following analysis of plasma samples from each of four cohorts. PK parameters were calculated by noncompartmental analysis using standard equations.”
Raw bioanalytical data were received from Nuvisan on Jun. 30, 2023. […] Specifically, area under the plasma concentration versus time curve (AUC) was calculated using the trapezoid rule. Maximal plasma concentration (Cmax) and time of maximal plasma concentration (Tmax) were taken directly from the data. […]

[1] = Table 17: Cohort D (AD), 90 mg QD oral, Day 7, individual subjects
[2] = Table 19 (interim): Cohort A, 40 mg SDD (10 mg NTRX-07) QD oral, Day 1, individual subjects
[3] = Table 20 (interim): Cohort A, 40 mg SDD (10 mg NTRX-07) QD oral, Day 7, individual subjects
[4] = Table 24 (interim): Cohort B, 120 mg SDD (30 mg NTRX-07) QD oral, Day 1, individual subjects
[5] = Table 25 (interim): Cohort B, 120 mg SDD (30 mg NTRX-07) QD oral, Day 7, individual subjects
[6] = Table 29 (interim): Cohort C, 360 mg SDD (90 mg NTRX-07) QD oral, Day 1, individual subjects
[7] = Table 30 (interim): Cohort C, 360 mg SDD (90 mg NTRX-07) QD oral, Day 7, individual subjects
[8] = Table 34 (interim): Cohort D (AD), 360 mg SDD (90 mg NTRX-07) QD oral, Day 1, individual subjects
[9] = Table 35 (interim): Cohort D (AD), 360 mg SDD (90 mg NTRX-07) QD oral, Day 7, individual subjects

With CC1(Cc2ccccc2)COc2cc(C(=O)N3CCCCC3)ccc21 (centres unmarked) [NTRX-07, 3-benzyl-3-methyl-2,3-dihydrobenzofuran-6-carboxylic acid-piperidine amide] the Cmax [1] was 250 ng/mL and 262 ng/mL and 246 ng/mL and 176 ng/mL and 221 ng/mL, the Tmax [1] was 1.5 h (3×) and 1 h and the Cl/F (Table 17: Cohort D (AD), 90 mg QD oral, Day 7, mean ± S.D.) was 117 ± 28 L/h. For the same molecule, the AUC24 h [2] was 35.7 ng·h/mL and 73.8 ng·h/mL and 151.0 ng·h/mL and 46.3 ng·h/mL and 154.2 ng·h/mL and 96.8 ng·h/mL, the Cl/F [2] was 1120 L/h and 542 L/h and 265 L/h and 864 L/h and 259 L/h and 413 L/h and the Cmax [2] was 24.2 ng/mL and 45.0 ng/mL and 36.7 ng/mL and 18.2 ng/mL and 52.6 ng/mL and 37.0 ng/mL. For the same molecule, the Tmax [2] was 1.0 h, the Cl/F (Table 19 (interim): Cohort A, 40 mg SDD (10 mg NTRX-07) QD oral, Day 1, mean ± S.D.) was 577 ± 347 L/h and the AUC24 h [3] was 49.5 ng·h/mL and 92.8 ng·h/mL and 223.8 ng·h/mL and 41.5 ng·h/mL and 91.9 ng·h/mL and 67.0 ng·h/mL. For the same molecule, the Cl/F [3] was 808 L/h and 431 L/h and 179 L/h and 963 L/h and 435 L/h and 597 L/h, the Cmax [3] was 29.6 ng/mL and 39.4 ng/mL and 63.6 ng/mL and 19.6 ng/mL and 46.7 ng/mL and 27.1 ng/mL and the Tmax [3] was 1.0 h. For the same molecule, the Cl/F (Table 20 (interim): Cohort A, 40 mg SDD (10 mg NTRX-07) QD oral, Day 7, mean ± S.D.) was 569 ± 284 L/h, the AUC24 h [4] was 152.3 ng·h/mL and 462.4 ng·h/mL and 716.3 ng·h/mL and 369.3 ng·h/mL and 229.9 ng·h/mL and 97.4 ng·h/mL and 236.4 ng·h/mL and the Cl/F [4] was 788 L/h and 260 L/h and 168 L/h and 325 L/h and 522 L/h and 1231 L/h and 508 L/h. The Cmax [4] was 60.8 ng/mL and 93.9 ng/mL and 209 ng/mL and 127 ng/mL and 153 ng/mL and 47.9 ng/mL and 70.6 ng/mL, the Tmax [4] was 1 h (3×) and 2 h and the Cl/F (Table 24 (interim): Cohort B, 120 mg SDD (30 mg NTRX-07) QD oral, Day 1, mean ± S.D.) was 549 ± 401 L/h. The AUC24 h [5] was 118.0 ng·h/mL and 582.3 ng·h/mL and 286.5 ng·h/mL and 241.7 ng·h/mL and 67.1 ng·h/mL and 200.4 ng·h/mL, the Cl/F [5] was 1017 L/h and 206 L/h and 419 L/h and the Cmax [5] was 92.9 ng/mL and 236 ng/mL and 127 ng/mL. For the same molecule, the Tmax [5] was 1 h, the AUC24 h [6] was 1629 ng·h/mL and 857 ng·h/mL and 925 ng·h/mL and 657 ng·h/mL and 1730 ng·h/mL and 1949 ng·h/mL and the Tmax [6] was 1.5 h (2×) and 8 h and 1 h and 3 h. For the same molecule, the AUC24 h [7] was 783 ng·h/mL and 604 ng·h/mL and 354 ng·h/mL and 516 ng·h/mL and 876 ng·h/mL and 1349 ng·h/mL, the Tmax [7] was 2 h and 1.5 h and 3 h and the AUC24 h [8] was 1004 ng·h/mL and 1255 ng·h/mL and 2727 ng·h/mL and 1349 ng·h/mL and 1580 ng·h/mL and 1422 ng·h/mL. The Tmax [8] was 2 h and 1 h (2×) and 1.5 h, the AUC24 h [9] was 1854 ng·h/mL and 1659 ng·h/mL and 1603 ng·h/mL and 1328 ng·h/mL and 1130 ng·h/mL and the Tmax [9] was 1.5 h (3×) and 1 h. For the same molecule, the “PK / plasma levels AD vs Non-AD participants” value (high dose (90 mg)) was “similar; also recorded: comparable”, the Cmax (human, plasma, oral, 90 mg, high dose (90 mg), AD participants, read-out: Cmax) was 477 ng/mL and the AUC(0-t) (human, plasma, oral, 90 mg, high dose (90 mg), AD participants, read-out: average of AUC0-24 h) was 1560 ng·h/mL. For the same molecule, the Cmax (human, plasma, oral, 90 mg, high dose (90 mg), Non-AD participants, read-out: Cmax) was 439 ng/mL, the AUC(0-t) (human, plasma, oral, 90 mg, high dose (90 mg), Non-AD participants, read-out: average of AUC0-24 h) was 1290 ng·h/mL and the AUC(0-t) (human, plasma, po, 10 mg, Cohort A healthy, 10 mg QD oral, Day 1, mean ± SD, read-out: Average of AUC24 h) was 78.8 ± 43.7 ng·h/mL. For the same molecule, the Cmax (human, plasma, po, 10 mg, Cohort A healthy, 10 mg QD oral, Day 1, mean ± SD, read-out: Average of Cmax) was 35.6 ± 12.8 ng/mL, the Tmax (human, plasma, po, 10 mg, Cohort A healthy, 10 mg QD oral, Day 1, mean ± SD, read-out: Average of Tmax) was 0.7 ± 0.3 h and the Vd/F (human, plasma, po, 10 mg, Cohort A healthy, 10 mg QD oral, Day 1, mean ± SD, read-out: Average of Vd/F) was 1280 ± 544 L. The AUC(0-t) (human, plasma, po, 10 mg, Cohort A healthy, 10 mg QD oral, Day 7, mean ± SD, read-out: Average of AUC24 h) was 90.4 ± 67.9 ng·h/mL, the Cmax (human, plasma, po, 10 mg, Cohort A healthy, 10 mg QD oral, Day 7, mean ± SD, read-out: Average of Cmax) was 37.7 ± 15.9 ng/mL and the Tmax (human, plasma, po, 10 mg, Cohort A healthy, 10 mg QD oral, Day 7, mean ± SD, read-out: Average of Tmax) was 0.8 ± 0.3 h. For the same molecule, the Vd/F (human, plasma, po, 10 mg, Cohort A healthy, 10 mg QD oral, Day 7, mean ± SD, read-out: Average of Vd/F) was 307 ± 126 L, the Tmax (human, plasma, po, 10 mg, Table 9: Cohort A, 10 mg QD oral, Day 1, individual subjects, read-out: Tmax) was 0.5 h and the AUC(0-t) (human, plasma, po, 10 mg, Table 9: Cohort A, 10 mg QD oral, Day 1, mean ± S.D., read-out: AUClast) was 78.8 ± 43.7 ng·h/mL. It also gave a Cmax (human, plasma, po, 10 mg, Table 9: Cohort A, 10 mg QD oral, Day 1, mean ± S.D., read-out: Cmax) of 35.6 ± 12.8 ng/mL, a Tmax (human, plasma, po, 10 mg, Table 9: Cohort A, 10 mg QD oral, Day 1, mean ± S.D., read-out: Tmax) of 0.7 ± 0.3 h and a Vd/F (human, plasma, po, 10 mg, Table 9: Cohort A, 10 mg QD oral, Day 1, mean ± S.D., read-out: Vd/F) of 1280 ± 544 L. The Tmax (human, plasma, po, 10 mg, Table 10: Cohort A, 10 mg QD oral, Day 7, individual subjects, read-out: Tmax) was 0.5 h and the AUC over 24 h (AUC0-24) (human, plasma, po, 10 mg, Table 10: Cohort A, 10 mg QD oral, Day 7, mean ± S.D.) was 90.4 ± 67.9 ng·h/mL.

From patent US20250082624A1, “METHODS OF TREATING COGNITIVE IMPAIRMENT” (NeuroTherapia, Inc., priority 2023, published 2025)
